Several values for one entry are separate records, joined by “and”; a condition that tells them apart may be missing. Equal values may be shown once. Entries after “also recorded” stand apart in the source; their conditions may differ.
System: adults with recurrence of glioblastoma multiforme (GBM)
Test: Phase 2 open-label study of IV AR-67 (7.5 mg/m2 once daily for 5 days, 21-day cycle) in recurrent GBM: adverse events (Safety Population, NCI-CTCAE). Cohort 1 = not received or not recently failed (>90 days) bevacizumab; Cohort 2 = recently (<90 days) failed bevacizumab
Type: in vivo, human
Conditions: for 1 related SAE, patients (%) / related SAE, No of Events / related TEAE, No of Events / ≥1 related TEAE, patients (%): possibly, probably, or definitely related
Experimental: This solution was reconstituted in dextrose 5% in water to a final concentration between 0.06-0.6 mg/mL Drug (7.5 mg/m2) was to be given until the onset of toxicity requiring discontinuation or tumor progression. Tumor response was assessed=14d after every second cycle and before every third cycle using MRI.

[1] = reGBM, single agent, infusion, N = 45

In the case of `CC[C@@]1(O)C(=O)OCc2c1cc1n(c2=O)Cc2c-1nc1ccc(O)cc1c2[Si](C)(C)C(C)(C)C` [AR-67, (205)-7-tert-butyldimethysilyl-10-hydroxycamptothecin], the “TEAE NCI-CTCAE Grade 1, No of Events” value (Cohort 1, N = 30) is reported as 178, the “TEAE NCI-CTCAE Grade 1, patients (%)” value (Cohort 1, N = 30) is reported as “(70.0) %” and the “TEAE NCI-CTCAE Grade 2, No of Events” value (Cohort 1, N = 30) is reported as 94. For the same compound, the “TEAE NCI-CTCAE Grade 2, patients (%)” value (Cohort 1, N = 30) was “(60.0) %”, the “TEAE NCI-CTCAE Grade 3, No of Events” value (Cohort 1, N = 30) was 63 and the “TEAE NCI-CTCAE Grade 3, patients (%)” value (Cohort 1, N = 30) was “(63.3) %”. The “TEAE NCI-CTCAE Grade 4, No of Events” value (Cohort 1, N = 30) was 5, the “TEAE NCI-CTCAE Grade 4, patients (%)” value (Cohort 1, N = 30) was “(16.7) %” and the “TEAE NCI-CTCAE Grade 5, No of Events” value (Cohort 1, N = 30) was 0. For the same compound, the “TEAE Nausea, patients (%)” value (Cohort 1, N = 30) was 13.3%, the “TEAE Nervous System Disorders, patients (%)” value (Cohort 1, N = 30) was “(50.0) %” and the “TEAE Neutropenia, patients (%)” value (Cohort 1, N = 30) was 16.7%. The “TEAE Neutrophil count decreased, patients (%)” value (Cohort 1, N = 30) was 16.7%, the “TEAE Not Related to AR-67, No of Events” value (Cohort 1, N = 30) was 83 and the “TEAE Not Related to AR-67, patients (%)” value (Cohort 1, N = 30) was “(66.7) %”. For the same compound, the “TEAE Platelet count decreased, patients (%)” value (Cohort 1, N = 30) was 13.3%, the “TEAE Possibly Related to AR-67, No of Events” value (Cohort 1, N = 30) was 146 and the “TEAE Possibly Related to AR-67, patients (%)” value (Cohort 1, N = 30) was “(66.7) %”. For the same compound, the “TEAE Probably Related to AR-67, No of Events” value (Cohort 1, N = 30) was 76, the “TEAE Probably Related to AR-67, patients (%)” value (Cohort 1, N = 30) was “(40.0) %” and the “TEAE Psychiatric Disorders, patients (%)” value (Cohort 1, N = 30) was 30.0%. The “TEAE Respiratory, Thoracic, and Mediastinal Disorders, patients (%)” value (Cohort 1, N = 30) was “(30.0) %”, the “TEAE Thrombocytopenia, patients (%)” value (Cohort 1, N = 30) was 20% and the “TEAE Vascular Disorders, patients (%)” value (Cohort 1, N = 30) was “(23.3) %”. The “TEAE Vision blurred, patients (%)” value (Cohort 1, N = 30) was “(10.0) %”, the “TEAE Vomiting, patients (%)” value (Cohort 1, N = 30) was 10.0% and the “TEAE White blood cell count decreased, patients (%)” value (Cohort 1, N = 30) was 16.7%. The “TEAE leading to death, No of Events” value (Cohort 1, N = 30) was 16, the “TEAE leading to early discontinuation, No of Events” value (Cohort 1, N = 30) was 5 and the “TEAE, No of Events” value (Cohort 1, N = 30) was 346. For the same compound, the “severe WBC count decreased, patients (%)” value (Cohort 1, N = 30) was 10.0%, the “severe neutropenia, patients (%)” value (Cohort 1, N = 30) was 16.7% and the “severe neutrophil count decreased, patients (%)” value (Cohort 1, N = 30) was 10.0%. For the same compound, the “≥1 TEAE leading to death, patients (%)” value (Cohort 1, N = 30) was “(3.3) %”, the “1 related SAE, patients (%)” value (Cohort 1, N = 30) was “(20.0) %” and the “related SAE, No of Events” value (Cohort 1, N = 30) was 10. The “related TEAE, No of Events” value (Cohort 1, N = 30) was 258, the “≥1 related TEAE, patients (%)” value (Cohort 1, N = 30) was “(83.3) %” and the “SAE blood and lymphatic system disorders, events” value (Cohort 2) was 3. For the same compound, the “SAE blood and lymphatic system disorders, patients” value (Cohort 2) was 2, the “SAE headache, patients” value (Cohort 2) was 2 and the “SAE nervous system disorders, events” value (Cohort 2) was 6. For the same compound, the “SAE nervous system disorders, patients” value (Cohort 2) was 6, the “Death, No of Events” value (Cohort 2, N = 13) was 2 and the “Death, patients (%)” value (Cohort 2, N = 13) was “(15.4) %”. The “SAE, No of Events” value (Cohort 2, N = 13) was 14, the “TEAE Blood and Lymphatic System Disorders, events” value (Cohort 2, N = 13) was 3 and the “TEAE Blood and Lymphatic System Disorders, patients (%)” value (Cohort 2, N = 13) was 15.4% and 15%. For the same compound, the “TEAE Constipation, patients (%)” value (Cohort 2, N = 13) was 15.4% and 15%, the “TEAE Convulsion, patients (%)” value (Cohort 2, N = 13) was 7.7% and the “TEAE Definitely Related to AR-67, No of Events” value (Cohort 2, N = 13) was 8. The “TEAE Definitely Related to AR-67, patients (%)” value (Cohort 2, N = 13) was “(38.5) %”, the “TEAE Diarrhoea, patients (%)” value (Cohort 2, N = 13) was 15.4% and 15% and the “TEAE Eye Disorders, patients (%)” value (Cohort 2, N = 13) was 7.7%. For the same compound, the “TEAE Gastrointestinal Disorders, patients (%)” value (Cohort 2, N = 13) was 53.8%, the “TEAE General Disorders and Administration Site Conditions, patients (%)” value (Cohort 2, N = 13) was 38.5% and the “TEAE Intensity Life Threatening, No of Events” value (Cohort 2, N = 13) was 1. For the same compound, the “TEAE Intensity Life Threatening, patients (%)” value (Cohort 2, N = 13) was “(7.7) %”, the “TEAE Intensity Mild, No of Events” value (Cohort 2, N = 13) was 20 and the “TEAE Intensity Mild, patients (%)” value (Cohort 2, N = 13) was “(53.8) %”. The “TEAE Intensity Moderate, No of Events” value (Cohort 2, N = 13) was 18, the “TEAE Intensity Moderate, patients (%)” value (Cohort 2, N = 13) was “(30.8) %” and the “TEAE Intensity Severe, No of Events” value (Cohort 2, N = 13) was 14. The “TEAE Intensity Severe, patients (%)” value (Cohort 2, N = 13) was “(61.5) %”, the “TEAE Investigations SOC, events” value (Cohort 2, N = 13) was 2 and the “TEAE Investigations, patients (%)” value (Cohort 2, N = 13) was 7.7%. For the same compound, the “TEAE Metabolism and Nutrition Disorders, patients (%)” value (Cohort 2, N = 13) was “(15.4) %”, the “TEAE Musculoskeletal and Connective Tissue Disorders, patients (%)” value (Cohort 2, N = 13) was 23.1% and the “TEAE NCI-CTCAE Grade 1, No of Events” value (Cohort 2, N = 13) was 17. The “TEAE NCI-CTCAE Grade 1, patients (%)” value (Cohort 2, N = 13) was “(53.8) %”, the “TEAE NCI-CTCAE Grade 2, No of Events” value (Cohort 2, N = 13) was 16 and the “TEAE NCI-CTCAE Grade 2, patients (%)” value (Cohort 2, N = 13) was “(30.8) %”. For the same compound, the “TEAE NCI-CTCAE Grade 3, No of Events” value (Cohort 2, N = 13) was 16, the “TEAE NCI-CTCAE Grade 3, patients (%)” value (Cohort 2, N = 13) was “(69.2) %” and the “TEAE NCI-CTCAE Grade 4, No of Events” value (Cohort 2, N = 13) was 3. The “TEAE NCI-CTCAE Grade 4, patients (%)” value (Cohort 2, N = 13) was “(23.1) %”, the “TEAE NCI-CTCAE Grade 5, No of Events” value (Cohort 2, N = 13) was 0 and the “TEAE Nausea, patients (%)” value (Cohort 2, N = 13) was 30.8% and 31%. The “TEAE Nervous System Disorders, patients (%)” value (Cohort 2, N = 13) was 46.2%, the “TEAE Neutropenia, patients (%)” value (Cohort 2, N = 13) was 7.7% and the “TEAE Not Related to AR-67, No of Events” value (Cohort 2, N = 13) was 25. The “TEAE Not Related to AR-67, patients (%)” value (Cohort 2, N = 13) was “(53.8) %”, the “TEAE Possibly Related to AR-67, No of Events” value (Cohort 2, N = 13) was 19 and the “TEAE Possibly Related to AR-67, patients (%)” value (Cohort 2, N = 13) was “(53.8) %”. The “TEAE Probably Related to AR-67, No of Events” value (Cohort 2, N = 13) was 1, the “TEAE Probably Related to AR-67, patients (%)” value (Cohort 2, N = 13) was “(7.7) %” and the “TEAE Psychiatric Disorders, patients (%)” value (Cohort 2, N = 13) was 23.1%. For the same compound, the “TEAE Respiratory, Thoracic, and Mediastinal Disorders, patients (%)” value (Cohort 2, N = 13) was “(15.4) %”, the “TEAE Thrombocytopenia, patients (%)” value (Cohort 2, N = 13) was 7.7% and the “TEAE Vision blurred, patients (%)” value (Cohort 2, N = 13) was 7.7%. For the same compound, the “TEAE Vomiting, patients (%)” value (Cohort 2, N = 13) was 7.7%, the “TEAE leading to death, No of Events” value (Cohort 2, N = 13) was 1 and the “TEAE leading to early discontinuation, No of Events” value (Cohort 2, N = 13) was 5. For the same compound, the “TEAE, No of Events” value (Cohort 2, N = 13) was 55, the “≥1 TEAE leading to death, patients (%)” value (Cohort 2, N = 13) was “(7.7) %” and the “1 related SAE, patients (%)” value (Cohort 2, N = 13) was “(38.5) %”. For the same compound, the “related SAE, No of Events” value (Cohort 2, N = 13) was 9, the “related TEAE, No of Events” value (Cohort 2, N = 13) was 28 and the “≥1 related TEAE, patients (%)” value (Cohort 2, N = 13) was “(76.9) %”. For the same compound, the “patients with AEs documented as mild, moderate, and severe intensity (span over the three)” value (Safety Population) was 58-69%, the “toxicities relative to comparator drug” value (comparison with published trials of the comparator) was “reduced toxicities relative to the toxicities induced by Etirinotecan treatment; also recorded: reduced toxicities relative to the toxicities induced by Karenitecin treatment; also recorded: reduced toxicities relative to the toxicities induced by Gimatecan treatment; also recorded: reduced toxicities relative to the toxicities induced by Lomustine treatment; also recorded: does not display the severe dose limiting toxicities typical of the marketed standard, Irinotecan; also recorded: dramatically reduced toxicities relative to the toxicities induced by Irinotecan treatment” and the “tolerability” value (in vivo) was “generally well tolerated”. For the same compound, the “TEAEs leading to discontinuation from the nervous system disorders SOC, events” value (of the 10 TEAEs leading to discontinuation) was “Six”, the “Diarrhoea Grades 3-5” value (reGBM, single agent, N = 45) was 0% and the “Nausea Grades 3-5” value (reGBM, single agent, N = 45) was 2%. The “Thrombocytopenia Grades 3-4” value (reGBM, single agent, N = 45) was 4%, the “Vomiting Grades 3-5” value (reGBM, single agent, N = 45) was 0% and the “Neutropenia Grades 3-4” value (reGBM, single agent, N = 45, All grade 3) was 13%. For the same compound, the “Diarrhoea Grade 4” value [1] was 0%, the “Nausea Grades 3,4” value [1] was 2% and the “Neutropenia Grade 4” value [1] was 0%. For the same compound, the “Vomiting Grades 3,4” value [1] was 0%.
